The CATMoS acute toxicity set (Mansouri et al. 2021)
“And” between values parts separate entries of the source, which are not always exact repeats. Equal entries are not always repeated.

test: rat acute oral toxicity; details: in vivo
Description: […]The data set underlying the modeling effort for this project was initially compiled by NICEATM and U.S. EPA’s CCTE. Briefly, LD50 data were collected from rat acute oral systemic toxicity tests, including limit tests, ranges/confidence intervals, and discrete LD50 values. The full data set included 21,200 LD50 entries for 15,688 substances. […] Data were reviewed to ensure that LD50 values with obvious errors in the extracted data such as unit conversion errors (e.g., comma and decimal separator misplacements) were either fixed or removed. After this review, 16,209 LD50 values remained. Many of the chemicals represented had multiple LD50 entries, requiring that a single representative value per Chemical Abstracts Service Registry Number (CASRN) identifier be defined to facilitate modeling efforts. Based on ATWG feedback and to define the representative LD50 as a protective value while accounting for the distribution across multiple LD50s, the median of the lowest quartile was computed using only discrete LD50 values (omitting limit test data and range and confidence interval data). A detailed summary of the data compilation is available online on the NICEATM webpage dedicated to the collaborative modeling project (NTP 2020).
[…][…] For categorical designations, limit test and range/confidence interval LD50 data were integrated wherever possible. As such, the number of chemicals with end point values/calls varies across the modeling end points (Table 3) based on whether chemicals had representative LD50 values and/or other data. If a chemical had both, the representative value was used to determine categorical calls rather than limit test data. Some data were useable only for certain end points and categories depending on the thresholds. For example, ranges that spanned multiple hazard categories were considered only for the binary (very toxic/nontoxic) end points and omitted from rendering a determination for hazard category assignment.
[…]The final data set comprising 11,992 chemicals was split into training and evaluation sets […], respectively. This process was performed semirandomly by ordering chemicals based on the five end points (categorical and continuous LD50 values) and partitioning every fourth record into the evaluation set accordingly. This approach was taken to ensure an equivalent distribution of the LD50 values and the different hazard categories between the training and the evaluation sets without supervised sampling of the chemicals based on structures (Figure 1A). The sources of the chemical structures were also kept equivalent between the two sets, with chemical structures obtained from DSSTox, being the highest quality, representing over 75% of each set (Figure 1B).

SMILES	LD50
O=S(=O)(O)CCCS	3720 mg/kg
CNP(=O)(OC)Oc1ccc(C(C)(C)C)cc1Cl (stereo not given)	460 mg/kg
O=c1ccc(=O)[nH][nH]1	3800 mg/kg
CCCCC(Cc1cc(C(C)(C)C)c(O)c(C(C)(C)C)c1)(C(=O)OC1CC(C)(C)N(C)C(C)(C)C1)C(=O)OC1CC(C)(C)N(C)C(C)(C)C1	1490 mg/kg
CC(C)Nc1nc(Cl)nc(NC2CC2)n1	516 mg/kg
Clc1cc2c(cc1Cl)Oc1cc(Cl)c(Cl)cc1O2	0.02 mg/kg
O=C=Nc1ccc(Cl)c(Cl)c1	91 mg/kg
O=C(O)CBr	50 mg/kg
N[C@@H](Cc1ccc(N(CCCl)CCCl)cc1)C(=O)O	11.2 mg/kg
CC(C)CCCCCCCOP(OCCCCCCCC(C)C)OCCCCCCCC(C)C	12000 mg/kg
CCC(C)=O	2740 mg/kg
CC(C)(C)C(=O)O	900 mg/kg
CC1(C)CC(=O)CC(C)(C)N1	1330 mg/kg
OCCN1CN(CCO)CN(CCO)C1	763 mg/kg
O=P(OCC(Br)CBr)(OCC(Br)CBr)OCC(Br)CBr (stereo not given)	810 mg/kg
Cc1ccccc1OP(=O)(Oc1ccccc1C)Oc1ccccc1C	1160 mg/kg
ClC=CCCl	110 mg/kg
COP(=S)(OC)SCC(=O)N(C)C=O	218 mg/kg
CC(C)CN	224 mg/kg
CC1=C(C)S(=O)(=O)CCS1(=O)=O	500 mg/kg
CCOC(=O)c1ccc(O)cc1	4300 mg/kg
Cc1ccccc1NC(=N)Nc1ccccc1C	70.7 mg/kg
O=C1O[B-]2(OC1=O)OC(=O)C(=O)O2	175 mg/kg
O=C(CCl)c1ccccc1	50 mg/kg
Oc1cccc(O)c1	301 mg/kg

SMILES	LD50
CCn1cc(C(=O)O)c(=O)c2ccc(C)nc21	1160 mg/kg
O=C(Cl)c1ccccc1	2460 mg/kg
Cc1ccc(C)c(C)c1	3280 mg/kg
Nc1ccc([N+](=O)[O-])cc1	750 mg/kg
CCCOC(C)=O	9370 mg/kg
N#CC(Br)Br	245 mg/kg
CCOP(=S)(OCC)Oc1cc(C)nc(N(CC)CC)n1	140 mg/kg
ClC(Cl)(Cl)C(Cl)(Cl)Cl	4460 mg/kg
C=CC(=O)Nc1ccccc1	300 mg/kg
Oc1cc(Cl)ccc1Cl	580 mg/kg
C1CO1	72 mg/kg
Cc1nnc(-c2ccccc2)c(=O)n1N	1180 mg/kg
C=CC#N	78 mg/kg
OCCOCCOc1ccccc1	2140 mg/kg
O=C(O)c1c(Cl)ccc(Cl)c1Cl	650 mg/kg
CCC(C)NC1CCC(CC2CCC(NC(C)CC)CC2)CC1 (stereo not given)	266 mg/kg
O=C(OC1CCCCC1)c1ccccc1O	3030 mg/kg
CC(C)CC(=O)CC(C)C	5260 mg/kg
C/C=C(/C)C(=O)O[C@H]1CCN2CC=C(COC(=O)[C@](O)([C@H](C)OC)C(C)(C)O)[C@H]12	110 mg/kg
C=CC(=O)OCCO	548 mg/kg
O=CC=O	481 mg/kg
CCOP(=S)(OCC)Oc1cc(Cl)c(SC)cc1Cl	9.1 mg/kg
CC1(C)C(=O)N(Br)C(=O)N1Cl	485 mg/kg
CN(C)S(=O)(=O)Cl	1220 mg/kg
CCCCCCCC/C=C\CCCCCCCCNCCCN	500 mg/kg

SMILES	LD50
N=C(NCCCCCCNC(=N)NC(=N)Nc1ccc(Cl)cc1)NC(=N)Nc1ccc(Cl)cc1	1180 mg/kg
CCOP(=S)(OCC)SCSC(C)(C)C	1.6 mg/kg
COP(=S)(OC)Oc1ccc([N+](=O)[O-])cc1Cl	284 mg/kg
O=[N+]([O-])C(Br)(CO)CO	180 mg/kg
ClC(Cl)(Cl)c1ccccc1	1590 mg/kg
CCSC(=O)N(CC(C)C)CC(C)C	4000 mg/kg
O=P(O)(O)CCCl	3400 mg/kg
CNCCO	1390 mg/kg
CC(=O)OC(C)C	3000 mg/kg
C/C=C/C=O	165 mg/kg
c1ccc(OP(Oc2ccccc2)Oc2ccccc2)cc1	444 mg/kg
O=C=Nc1cccc(C(F)(F)F)c1	975 mg/kg
CC(C)(O)C#N	18.6 mg/kg
C#CCOS(=O)OC1CCCCC1Oc1ccc(C(C)(C)C)cc1 (stereo not given)	2200 mg/kg
CC(C)(C)CC(C)(C)c1ccc(OCCO)cc1	1800 mg/kg
O=S(=O)(O)c1ccc(Nc2nc(Nc3ccc(/C=C/c4ccc(Nc5nc(Nc6ccc(S(=O)(=O)O)cc6)nc(N(CCO)CCO)n5)cc4S(=O)(=O)O)c(S(=O)(=O)O)c3)nc(N(CCO)CCO)n2)cc1	5300 mg/kg
CCCCCCC=O	3200 mg/kg
Cc1[nH]c(=O)n(C(C)(C)C)c(=O)c1Cl	1700 mg/kg
O=C1C[C@@H]2OCC=C3CN4CC[C@]56c7ccccc7N1[C@H]5[C@H]2[C@H]3C[C@H]46	3.58 mg/kg
CN(C)C(=O)Nc1ccccc1	6400 mg/kg
CC1(C)[C@H]2[C@H](O)OC(=O)[C@H]21	200 mg/kg
C=CC=O	11.1 mg/kg
O=C1OC(=O)c2cccc3cccc1c23	9600 mg/kg
Nc1nc[nH]n1	1100 mg/kg
CC(O)CC(C)(C)O (stereo not given)	3700 mg/kg

SMILES	LD50
CN(C)CCN(C)C	268 mg/kg
COc1nc(C)nc(NC(=O)NS(=O)(=O)c2ccccc2Cl)n1	5540 mg/kg
CCCCCCCCCCCCCC[N+](C)(C)Cc1ccccc1	281 mg/kg
O=C(O)C1C2CCC(O2)C1C(=O)O (stereo not given)	38 mg/kg
CC1(C)OC[C@@H]2O[C@@]3(C(=O)O)OC(C)(C)O[C@H]3[C@@H]2O1	18000 mg/kg
CC(=O)CC(C)=O	570 mg/kg
Cc1ccc2nc3sc(=O)sc3nc2c1	1100 mg/kg
CC(=O)O[Si](C)(OC(C)=O)OC(C)=O	1550 mg/kg
N#CSCSc1nc2ccccc2s1	679 mg/kg
Cc1ccc(C)cc1	3520 mg/kg
Nc1ccccc1[N+](=O)[O-]	1600 mg/kg
C=CC(=O)OCC1CO1 (stereo not given)	150 mg/kg
CC(C)c1cccc(C(C)C)c1N	3200 mg/kg
CCCCNCCCC	189 mg/kg
O=C(NCc1cccnc1)Nc1ccc([N+](=O)[O-])cc1	4.75 mg/kg
C=CC(C)C#N (stereo not given)	232 mg/kg
C[n+]1ccc(-c2cc[n+](C)cc2)cc1	97.5 mg/kg and 106 mg/kg
CCCC(=NOCC)C1=C(O)CC(CC(C)SCC)CC1=O (stereo not given)	2680 mg/kg
C=CNC=O	1000 mg/kg
CCN(CC)c1c([N+](=O)[O-])cc(C(F)(F)F)c(N)c1[N+](=O)[O-]	3000 mg/kg
O=[N+]([O-])c1ccc(Oc2ccc(Cl)cc2Cl)cc1	2410 mg/kg
CCN(CC)C(=O)SCc1ccc(Cl)cc1	920 mg/kg
COc1ccccc1O	520 mg/kg
O=C(C=Cc1ccccc1)OCc1ccccc1	5380 mg/kg
OC[C@@H](O)[C@@H](O)CO	13100 mg/kg

SMILES	LD50
Clc1ccc(-c2ccc(Cl)c(Cl)c2Cl)c(Cl)c1Cl	1300 mg/kg
CCCN(CCC)CCC	72.5 mg/kg
Nc1ccccc1N	510 mg/kg
O=[N+]([O-])c1ccc(Cl)c([N+](=O)[O-])c1	640 mg/kg
CC1(C)[C@H](/C=C2\CCSC2=O)[C@@H]1C(=O)OCc1coc(Cc2ccccc2)c1	650 mg/kg
COc1ccc2c3c1O[C@H]1[C@@H](O)C=C[C@H]4[C@@H](C2)N(C)CC[C@@]341	427 mg/kg
C1COCO1	3000 mg/kg
COc1nc(NC(C)C)nc(NC(C)C)n1	503 mg/kg
C[N+](C)(C)CCCl	600 mg/kg
CC(O)COCC(C)O (stereo not given)	14800 mg/kg
ClC(Cl)=C(Cl)C(Cl)=C(Cl)Cl	82 mg/kg
CCO[Si](CCC#N)(OCC)OCC	5600 mg/kg
CCCCCCCCCCCCNC(=N)N	566 mg/kg
Clc1cccc(Cl)c1C(Cl)Cl	1300 mg/kg
CCCCOCCOC(=O)COc1ccc(Cl)cc1Cl	831 mg/kg
Clc1ccccc1	1110 mg/kg
CCNc1nc(NC(C)C)nc(SC)n1	1060 mg/kg
CCCCCCCCC=CCCCCCCCCN(CCO)CCO	1260 mg/kg
C/C(=N\NC(=O)Nc1cc(F)cc(F)c1)c1ncccc1C(=O)O	3300 mg/kg
CCNc1nc(Cl)nc(NC(C)C)n1	1870 mg/kg
CCCCN=C=O	360 mg/kg
Oc1ccc(Cl)cc1Cl	47 mg/kg
O=C(Cl)CCCCl	1350 mg/kg
N=C(N)N	475 mg/kg and 730 mg/kg
CC(C)(N)Cc1ccccc1	151 mg/kg

SMILES	LD50
O=C(O)/C=C/C(=O)O	9300 mg/kg
COP(=S)(OC)Oc1ccc(Sc2ccc(OP(=S)(OC)OC)cc2)cc1	444 mg/kg
Cc1ccncc1	440 mg/kg
O=c1sc2ccccc2c(O)c1C1CC(c2ccc(-c3ccc(Br)cc3)cc2)Cc2ccccc21 (stereo not given)	0.55 mg/kg
C=C(C)[C@@H]1CC=C(C)C(=O)C1	4900 mg/kg
CCCCC=O	4580 mg/kg
CS(=O)(=O)Cl	50 mg/kg
CNC1=Nc2ccc(Cl)cc2C(c2ccccc2)=[N+]([O-])C1	392 mg/kg
Nc1ccc(Cl)cc1	300 mg/kg
CN	80 mg/kg
NC=O	5580 mg/kg
CN=C(O)Oc1cccc(C)c1	268 mg/kg
O=Cc1ccc(-c2ccccc2)cc1	1000 mg/kg
CN(C)c1ccc(N)cc1	50 mg/kg
CC(=O)CC(=O)Nc1ccccc1Cl	4040 mg/kg
CCCCCCCCCCCCCC[N+](C)(C)CCCCCCCCCCCCCC	930 mg/kg
CCCCOCCOCCOC(OCCOCCOCCCC)c1ccc2c(c1)OCO2	2940 mg/kg
O=C1CCC(=O)O1	1510 mg/kg
C=CCOC(=O)OCCOCCOC(=O)OCC=C	350 mg/kg
CC(C)C1OCC=CCO1	1000 mg/kg
